Data published in patent US9708314B2, “Heterocyclic amide compound” (NISSAN CHEMICAL INDUSTRIES, LTD., priority 2013, dated 2017).

How the values were obtained:
Assay type in all cases: in vivo
[1] = test system: Echinochloa oryzacola Vasing.; assay: Test Example 1: herbicidal activity, application before weed generation in submerged conditions; details: Application herbicide amount 320 g/ha; Seventeenth Table
Method in brief: (§1)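 Pre-emergence application to water surface of submerged pots (4 cm depth, alluvial soil) on sowing day, with 2.5-leaf rice transplanted; emulsion diluted to g/ha rates. Grown in greenhouse at 25–30 °C; 0–5 herbicidal/crop-effect score after three weeks.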

[2] = test system: Monochoria vaginalis; assay: as above; details: Application herbicide amount 320 g/ha; Seventeenth Table
Method in brief: as §1

[3] = test system: Scirpus juncoides; assay: as above; details: Application herbicide amount 320 g/ha; Seventeenth Table
Method in brief: as §1

[4] = test system: Abutilon theophrasti; assay: Test Example 4: herbicidal effect by application to foliage (diluvial soil, plastic box); details: Application herbicide amount 320 g/ha; foliage application
Method in brief: (§2)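 Plants were grown in sterilized diluvial soil in a greenhouse at 25-30° C for 14 days, then sprayed on stems and leaves with water-diluted emulsion formulation at set rates in g/ha. Weed control and crop injury were scored 3 weeks after treatment on a 0-5 herbicidal-ratio scale, from 0 (≤5%) to 5 (≥90%).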

[5] = test system: Alopecurus myosuroides; assay: as above; details: Application herbicide amount 320 g/ha; foliage application
Method in brief: as §2

[6] = test system: Amaranthus retroflexus; assay: as above; details: Application herbicide amount 320 g/ha; foliage application
Method in brief: as §2

[7] = test system: Apera spica-venti.; assay: as above; details: Application herbicide amount 320 g/ha; foliage application
Method in brief: as §2

[8] = test system: Avena fatua; assay: as above; details: Application herbicide amount 320 g/ha; foliage application
Method in brief: as §2

[9] = test system: Chenopodium album; assay: as above; details: Application herbicide amount 320 g/ha; foliage application
Method in brief: as §2

[10] = test system: Digitaria ciliaris; assay: as above; details: Application herbicide amount 320 g/ha; foliage application
Method in brief: as §2

[11] = test system: Echinochloa crus-galli var. crus-galli; assay: as above; details: Application herbicide amount 320 g/ha; foliage application
Method in brief: as §2

[12] = test system: Galium spurium; assay: as above; details: Application herbicide amount 320 g/ha; foliage application
Method in brief: as §2

[13] = test system: Lolium multiflorum Lam.; assay: as above; details: Application herbicide amount 320 g/ha; foliage application
Method in brief: as §2

[14] = test system: Setaria viridis; assay: as above; details: Application herbicide amount 320 g/ha; foliage application
Method in brief: as §2

[15] = test system: Stellaria media; assay: as above; details: Application herbicide amount 320 g/ha; foliage application
Method in brief: as §2

[16] = test system: Veronica persica; assay: as above; details: Application herbicide amount 320 g/ha; foliage application
Method in brief: as §2

[17] = test system: Beta vulgaris ssp. vulgaris; assay: Test Example 4: effect on crop by application to foliage (diluvial soil, plastic box); details: Application herbicide amount 320 g/ha; foliage application
Method in brief: as §2

[18] = test system: Brassica campestris L.; assay: as above; details: Application herbicide amount 320 g/ha; foliage application
Method in brief: as §2

[19] = test system: Glycine max; assay: as above; details: Application herbicide amount 320 g/ha; foliage application
Method in brief: as §2

[20] = test system: Triticum aestivum; assay: as above; details: Application herbicide amount 320 g/ha; foliage application
Method in brief: as §2

[21] = test system: Zea mays; assay: as above; details: Application herbicide amount 320 g/ha; foliage application
Method in brief: as §2

[22] = test system: directly sowed Oryza sativa; assay: as above; details: Application herbicide amount 320 g/ha; foliage application
Method in brief: as §2

| SMILES | A: Echinochloa oryzicola Vasing. (herbicidal effect grade) [1] | C: Monochoria vaginalis (herbicidal effect grade) [2] | B: Scirpus juncoides (herbicidal effect grade) [3] | M (Abutilon theophrasti) herbicidal effect grade [4] | J (Alopecurus myosuroides) herbicidal effect grade [5] | N (Amaranthus retroflexus) herbicidal effect grade [6] | L (Apera spica-venti.) herbicidal effect grade [7] | I (Avena fatua) herbicidal effect grade [8] | O (Chenopodium album) herbicidal effect grade [9] | F (Digitaria ciliaris) herbicidal effect grade [10] | H (Echinochloa crus-galli var. crus-galli) herbicidal effect grade [11] | Q (Galium spurium) herbicidal effect grade [12] | K (Lolium multiflorum Lam.) herbicidal effect grade [13] | G (Setaria viridis) herbicidal effect grade [14] | P (Stellaria media) herbicidal effect grade [15] | R (Veronica persica) herbicidal effect grade [16] | f (Beta vulgaris ssp. vulgaris) effect on crop grade [17] | g (Brassica campestris L.) effect on crop grade [18] | d (Glycine max) effect on crop grade [19] | e (Triticum aestivum) effect on crop grade [20] | other results |
| --- | --- | --- | --- | --- | --- | --- | --- | --- | --- | --- | --- | --- | --- | --- | --- | --- | --- | --- | --- | --- | --- |
| CSCc1nnc2c(C(=O)Nc3nnco3)ccc(C(F)(F)F)n12 [1-146] | 5 (Herbicidal ratio of 90% or more (almost completely withered)) | 5 (Herbicidal ratio of 90% or more (almost completely withered)) | 5 (Herbicidal ratio of 90% or more (almost completely withered)) | 4 (Herbicidal ratio of 70% or more and less than 90%) | 2 (Herbicidal ratio of 20% or more and less than 40%) | 5 (Herbicidal ratio of 90% or more (almost completely withered)) | 4 (Herbicidal ratio of 70% or more and less than 90%) | 4 (Herbicidal ratio of 70% or more and less than 90%) | 5 (Herbicidal ratio of 90% or more (almost completely withered)) | 5 (Herbicidal ratio of 90% or more (almost completely withered)) | 5 (Herbicidal ratio of 90% or more (almost completely withered)) | 5 (Herbicidal ratio of 90% or more (almost completely withered)) | 4 (Herbicidal ratio of 70% or more and less than 90%) | 5 (Herbicidal ratio of 90% or more (almost completely withered)) | 5 (Herbicidal ratio of 90% or more (almost completely withered)) | 5 (Herbicidal ratio of 90% or more (almost completely withered)) | 5 (Herbicidal ratio of 90% or more (almost completely withered)) | 5 (Herbicidal ratio of 90% or more (almost completely withered)) | 5 (Herbicidal ratio of 90% or more (almost completely withered)) | 3 (Herbicidal ratio of 40% or more and less than 70%) | c (Zea mays) effect on crop grade [21]: 0 (Herbicidal ratio of 5% or less (almost no effect)); b (directly sowed Oryza sativa) effect on crop grade [22]: 5 (Herbicidal ratio of 90% or more (almost completely withered)) |
| O=C(Nc1nnco1)c1ccc(C(F)(F)F)n2c(-c3ccc(F)cc3)nnc12 [1-147] | 5 (Herbicidal ratio of 90% or more (almost completely withered)) | 5 (Herbicidal ratio of 90% or more (almost completely withered)) | 5 (Herbicidal ratio of 90% or more (almost completely withered)) | 3 (Herbicidal ratio of 40% or more and less than 70%) | 2 (Herbicidal ratio of 20% or more and less than 40%) | 4 (Herbicidal ratio of 70% or more and less than 90%) | 3 (Herbicidal ratio of 40% or more and less than 70%) | 3 (Herbicidal ratio of 40% or more and less than 70%) | 5 (Herbicidal ratio of 90% or more (almost completely withered)) | 4 (Herbicidal ratio of 70% or more and less than 90%) | 4 (Herbicidal ratio of 70% or more and less than 90%) | 3 (Herbicidal ratio of 40% or more and less than 70%) | 3 (Herbicidal ratio of 40% or more and less than 70%) | 3 (Herbicidal ratio of 40% or more and less than 70%) | 5 (Herbicidal ratio of 90% or more (almost completely withered)) | 5 (Herbicidal ratio of 90% or more (almost completely withered)) | 5 (Herbicidal ratio of 90% or more (almost completely withered)) | 5 (Herbicidal ratio of 90% or more (almost completely withered)) | 3 (Herbicidal ratio of 40% or more and less than 70%) | 3 (Herbicidal ratio of 40% or more and less than 70%) | c (Zea mays) effect on crop grade [21]: 0 (Herbicidal ratio of 5% or less (almost no effect)); b (directly sowed Oryza sativa) effect on crop grade [22]: 0 (Herbicidal ratio of 5% or less (almost no effect)) |
| COc1cc(OC)cc(-c2nnc3c(C(=O)Nc4nnco4)ccc(C(F)(F)F)n23)c1 [1-148] | 5 (Herbicidal ratio of 90% or more (almost completely withered)) | 5 (Herbicidal ratio of 90% or more (almost completely withered)) | 5 (Herbicidal ratio of 90% or more (almost completely withered)) | 3 (Herbicidal ratio of 40% or more and less than 70%) | 1 (Herbicidal ratio of 5% or more and less than 20%) | 5 (Herbicidal ratio of 90% or more (almost completely withered)) | 2 (Herbicidal ratio of 20% or more and less than 40%) | 1 (Herbicidal ratio of 5% or more and less than 20%) | 5 (Herbicidal ratio of 90% or more (almost completely withered)) | 4 (Herbicidal ratio of 70% or more and less than 90%) | 5 (Herbicidal ratio of 90% or more (almost completely withered)) | 4 (Herbicidal ratio of 70% or more and less than 90%) | 3 (Herbicidal ratio of 40% or more and less than 70%) | 3 (Herbicidal ratio of 40% or more and less than 70%) | 5 (Herbicidal ratio of 90% or more (almost completely withered)) | 5 (Herbicidal ratio of 90% or more (almost completely withered)) | 5 (Herbicidal ratio of 90% or more (almost completely withered)) | 4 (Herbicidal ratio of 70% or more and less than 90%) | 3 (Herbicidal ratio of 40% or more and less than 70%) | 0 (Herbicidal ratio of 5% or less (almost no effect)) | c (Zea mays) effect on crop grade [21]: 0 (Herbicidal ratio of 5% or less (almost no effect)); b (directly sowed Oryza sativa) effect on crop grade [22]: 3 (Herbicidal ratio of 40% or more and less than 70%) |
| COc1ccc(-c2nnc3c(C(=O)Nc4nnco4)ccc(C(F)(F)F)n23)cc1 [1-149] | 5 (Herbicidal ratio of 90% or more (almost completely withered)) | 3 (Herbicidal ratio of 40% or more and less than 70%) | 4 (Herbicidal ratio of 70% or more and less than 90%) | 3 (Herbicidal ratio of 40% or more and less than 70%) | 1 (Herbicidal ratio of 5% or more and less than 20%) | 3 (Herbicidal ratio of 40% or more and less than 70%) | 2 (Herbicidal ratio of 20% or more and less than 40%) | 1 (Herbicidal ratio of 5% or more and less than 20%) | 5 (Herbicidal ratio of 90% or more (almost completely withered)) | 4 (Herbicidal ratio of 70% or more and less than 90%) | 4 (Herbicidal ratio of 70% or more and less than 90%) | 3 (Herbicidal ratio of 40% or more and less than 70%) | 1 (Herbicidal ratio of 5% or more and less than 20%) | 3 (Herbicidal ratio of 40% or more and less than 70%) | 5 (Herbicidal ratio of 90% or more (almost completely withered)) | 5 (Herbicidal ratio of 90% or more (almost completely withered)) | 5 (Herbicidal ratio of 90% or more (almost completely withered)) | 5 (Herbicidal ratio of 90% or more (almost completely withered)) | 3 (Herbicidal ratio of 40% or more and less than 70%) | 0 (Herbicidal ratio of 5% or less (almost no effect)) | c (Zea mays) effect on crop grade [21]: 0 (Herbicidal ratio of 5% or less (almost no effect)); b (directly sowed Oryza sativa) effect on crop grade [22]: 1 (Herbicidal ratio of 5% or more and less than 20%) |
